Tests used:
[1] = tested on: 5-HT content in brain and serum; experiment: LC-MS/MS determination of 5-HT levels in brain and serum; format: in vivo, mouse; conditions: 100 mg/kg i.p. once daily for 4 days
Excerpt: Male CD-1 mice (Janvier Labs, Le Genest-St-Isle, France), 3 months of age were used. The animals in the different treatment groups were matched for age. The University of Barcelona’s Committee on Animal Use and Care approved the protocol. Animals were housed and tested in compliance with the guidelines described in the Guide for the Care and Use of Laboratory Animals ([Clark et al., 1997]) and following the European Union directives (2010/63/EU), FELASA and ARRIVE guidelines. All efforts were made to minimize animal suffering and the number of animals used. All animals were housed in groups of five in standard cages with ad libitum access to food and water and maintained under a 12-h dark/light cycle (starting at 7:30 AM), 22°C temperature, and 66% humidity. […]
Quantitative analysis of 5-HT was carried out by liquid chromatography coupled with tandem mass spectrometry (LC-MS/MS) using an Agilent 1,290 Infinity UHPLC chromatograph (Santa Clara, CA) coupled to a 6500 QTRAP mass spectrometer (ABSciex, Framingham, MA) equipped with an Ion Drive Turbo V ion source operating in positive ion mode. […] Sample-to-sample differences in recovery, liquid handling, and ionization efficiency were compensated for by normalizing to the amount of 5-HT-d4 detected in the samples. […]

[2] = molecular target: T1, WT human TH (Homo sapiens, UniProt P07101); experiment: TH enzymatic activity assay (selectivity); format: biochemical; conditions: up to a concentration of 100 µM
T1 construct: made in house
Experimental: Full-length WT TPH1 and TPH2 were expressed as N-terminal six-His-maltose-binding protein fusion proteins in pETM-41 and were cleaved and purified as described previously ([McKinney et al., 2004]; [Winge et al., 2007]). Human WT PAH and TH were expressed and isolated as described previously ([Flydal et al., 2012]; [Bezem et al., 2016]).
Purified WT human TPH2, PAH, and TH were used for this purpose, and the activity assays for each enzyme was performed as described previously ([Haavik and Flatmark, 1980]; [Winge et al., 2007]; [Aubi et al., 2015]; [Bezem et al., 2016]).

[3] = tested on: CD-1 mice; experiment: Tail suspension test; format: in vivo, mouse; conditions: 100 mg/kg i.p. once daily for 4 days, test 20 h after last dose, 6 min trial; p = 0.028, Mann-Whitney test
Excerpt: Male CD-1 mice (Janvier Labs, Le Genest-St-Isle, France), 3 months of age were used. The animals in the different treatment groups were matched for age. The University of Barcelona’s Committee on Animal Use and Care approved the protocol. Animals were housed and tested in compliance with the guidelines described in the Guide for the Care and Use of Laboratory Animals ([Clark et al., 1997]) and following the European Union directives (2010/63/EU), FELASA and ARRIVE guidelines. All efforts were made to minimize animal suffering and the number of animals used. All animals were housed in groups of five in standard cages with ad libitum access to food and water and maintained under a 12-h dark/light cycle (starting at 7:30 AM), 22°C temperature, and 66% humidity. […] While all treated animals were tested in the tail suspension test, brain tissue from eight of the vehicle-treated and nine of the omeprazole-treated mice was used for subsequent analysis of 5-HT content. Serum samples for 5-HT analysis were drawn from another nine vehicle-treated and eight omeprazole-treated mice.
Immobility time in the tail suspension test is known to be sensitive to manipulations that alter brain 5-HT content ([Garcia-Miralles et al., 2016]; [Palucha-Poniewiera et al., 2017]). […] Each animal was suspended for 6 min and the time spent immobile during suspension was counted using a stopwatch. […]

[4] = parameters: method as in Wu and Delamere, 1997; conditions: dissociation of the protonated pyridine nitrogen; ref Wu and Delamere, 1997; cited from earlier work

T1 sequence (P07101 1-497 isoform P07101-3): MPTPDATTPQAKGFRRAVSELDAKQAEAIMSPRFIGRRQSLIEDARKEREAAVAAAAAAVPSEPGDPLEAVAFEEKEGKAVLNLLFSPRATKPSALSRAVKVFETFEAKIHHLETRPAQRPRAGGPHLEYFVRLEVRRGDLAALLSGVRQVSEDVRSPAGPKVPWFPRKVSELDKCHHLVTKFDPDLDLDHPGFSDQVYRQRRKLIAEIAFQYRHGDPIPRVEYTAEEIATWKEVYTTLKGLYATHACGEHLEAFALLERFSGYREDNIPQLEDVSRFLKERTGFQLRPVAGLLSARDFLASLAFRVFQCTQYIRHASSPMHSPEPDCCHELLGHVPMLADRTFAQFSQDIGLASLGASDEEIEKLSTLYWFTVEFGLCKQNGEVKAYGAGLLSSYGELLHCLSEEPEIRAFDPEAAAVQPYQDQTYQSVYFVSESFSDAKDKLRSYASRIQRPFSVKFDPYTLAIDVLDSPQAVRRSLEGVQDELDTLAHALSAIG

COc1ccc2[nH]c([S+]([O-])Cc3ncc(C)c(OC)c3C)nc2c1 (centres unmarked) [Omeprazole]
5-HT content in serum vs vehicle ([1]; serum): significantly higher 5-HT content
5-HT content in brain vs vehicle ([1]; whole-brain tissue): significantly higher 5-HT content
inhibition of TH [2]: no inhibition
time spent immobile in tail suspension test vs vehicle [3]: significantly less time immobile
pKa [4]: 7.1
